In brackets after ≈: the same amount, converted by molar mass. Entries after “also recorded” stand apart in the source; their conditions may differ. Read-outs that look alike come from different tables or passages of the source.
Key:
[1] = system: TNFα; assay: Inhibition of TNFα production in LPS-stimulated THP-1 cells (ELISA); assay type: cell-based, human; details: for inhibition at 10 µg/mL / inhibition at 100 µg/mL / IC50: Homo sapiens; for inhibition at 10 µg/mL: 10 μg/mL; for inhibition at 10 µg/mL / inhibition at 100 µg/mL: THP-1, 6 h post-stimulation (FIG. 2), read-out: percent inhibition of TNFα production; for inhibition at 100 µg/mL: 100 μg/mL; for IC50: Table 2, LPS-stimulated THP-1, 6 h post-stimulation
Protocol: (§1) Cell line. THP-1 cells (human monocyte) were maintained in RPMI 1640 medium containing 25 mM Hepes buffer, 2 mM L-glutamine, 50 units of penicillin per mL, 50 μg of streptomycin sulfate per mL, and 10% heat-inactivated fetal bovine serum (FBS) in a humidified incubator containing 5% CO2. The cells were split 1:4 weekly as recommended by the American Type Culture Collection (ATCC).
(§2) TNFα assay. Varying concentrations of the test compound or control compound were added to THP-1 cells plated at a density of 1×10^6cells/mL in 600 μL of 10% RPMI in a 48 well plate. After one hour the cells were stimulated with 0.5 μg of lipopolysaccharide (LPS; Sigma, lot number 43H40491) per mL. Six hours post-stimulation supernatants were collected and assayed for TNFα or IL-1β production using a commercially available cytokine detection ELISA (Enzyme Linked Immunosorbent Assay) kit according to the suppliers instructions. A suitable assay kit may be obtained from Biosource, or R and D systems. A novel xanthine analog, HWA-3138, having the structure (as shown below) was used as the control compound (30) in this study to monitor the response of the THP-l cells. Xanthine analogs are known inhibitors of TNFα but not IL-1β. In the following experiments compound HWA-3138 was used as a positive control. [drawing 58]
Time of Addition. Varying concentrations of test or control compounds were added to THP-1 cells (1×10^6 cells/mL) at different time points post-stimulation using 0.5 μg of LPS (Sigma, lot number 43H40491) per mL in 300 μL of 10% RPMI in a 48 well plate. Six hours post-stimulationsupernatants were collected and assayed for TNFα or IL-1β production using a Biosource cytokine detection ELISA (Enzyme Linked Immunosorbent Assay) kit according to the supplier's instructions.
The membrane bound TNFα was separated from the free TNFα in the culture medium at 6 hours post-LPS stimulation as follows: The corresponding cells were centrifuged at 3500 rpm (~1,000×g) for 6 min. The supernatants were removed and the cell pellets were then resuspended in 200 μL of 0.25 mM Tris-HCl (pH 7.4). The cell associated TNFα was prepared by freezing the cell suspension in dry ice/ethanol and thawing at 37° C. three times with Vortexing in-between freeze-thaw cycles. Each cycle was 4-5 min apart.
To determine the long-term effects of phosphazole compound T70241 on TNFα production after a single treatment, THP-1 cells were pre-incubated with T70241, washed and resuspended in drug free medium. The xanthine analog HWA-3138 was used as a control.

[2] = Cytotoxicity on static Vero cells; assay type: cell-based; details: african green monkey, Table 4, 50% cell death (static cells), read-out: TC50 Static Vero
Protocol: Cell Culture. Vero (African Green Monkey kidney cells) and MRC-5 (diploid Human Embryonic Lung fibroblasts) cells were obtained from the American Type Culture Collection (ATCC) and were grown in minimal essential medium (MEM) with Earl's salts and glutamine (GIBCO BRL, Life Technologies, Inc.) with 10% heat inactivated fetal bovine serum (GIBCO BRL) and penicillin (100 μg/mL)/streptomycin (100 μg/mL).
Cytotoxicity Analysis. The cytotoxicity of the compound was assayed using few the CellTiter 96™ Aqueous Non-Radioactive Cell Proliferation (MTS) Assay (Promega). Briefly, viable cell number was determined by trypan blue staining and cells (MRC-5 and Vero) were resuspended in minimal essential medium (MEM) supplemented with 10% FBS (GIBCO). Eighty microliters of cell suspension (1.7×10^4 cells/well) was dispensed onto a 96-well microtiter plates. At this time 20 μL of drug (or control) was added to appropriate wells. Each concentration was assayed in quadruplicate. The plates were incubated at 37° C. in a humidified 5% CO2 atmosphere for 4 days and MTS assay was performed according to the manufacturer's instructions. The average absorbence of the sample was graphed for each concentration and the data obtained was used to calculate TC50 (the concentration necessary to give one-half maximum growth) for each compound.

[3] = system: IL-1β; assay: Inhibition of IL-1β production in LPS-stimulated THP-1 cells (ELISA); assay type: cell-based, human; details: for IC50: Homo sapiens
Protocol: as §1
as §2, with “58] […]” for “58]”
THP-1 cells were cultured and IL-1β inhibition assays were conducted as described for TNFα in Example 46, except a commercially available IL-1β assay kit, obtained from R and D Systems, Minneapolis, Minn., was used instead of the TNFα kit.
With reference now to FIG. 8, for each concentration of T70241 tested, the membrane bound IL-1β was separated from the IL-1β found free in the culture medium at 6 hours post-LPS stimulation as described in Example 46 for TNFα, and the percent inhibition of each fraction was graphed.

[4] = Viability of PBMCs exposed to test compound; assay type: cell-based, human; details: human, pbmcs, 48 h, +LPS, read-out: % Viable Cells
[5] = system: PBMCs; assay: Viability of PBMCs exposed to test compound; assay type: cell-based, human; details: 48 hours of exposure
[6] = system: MRC-5 cells; assay: Cytotoxicity on growing MRC-5 cells (MTS); assay type: cell-based, human
[7] = Table 2, LPS-stimulated THP-1, 6 h post-stimulation, read-out: IC50 IL-1β in THP-1 cells
[8] = lowest concentration tested, 6 h post-LPS (FIG. 4)

## CCCCCn1cpc2ncnc(N)c21 (stereo not drawn) [T70254, 7-Amino-1-(n-pentyl)-1,3-azaphospholo[4,5-d]pyrimidine]
[1]; 6 hours, LPS (FIG. 2)
  inhibition of TNFα production by T70254: significantly inhibits TNFα production in THP-1 cells
[1]
  inhibition at 10 µg/mL: ~30%
  inhibition at 100 µg/mL: ~55%
  IC50: 19.4 µg/mL (≈ 87.3 µM)
[2]
  CC50 at 96 h: 18.2 µg/mL (≈ 81.8 µM)
[3]; [7]
  IC50: 152 µg/mL (≈ 686 µM)

## Nc1ncnc2pc[nH]c12 (stereo not drawn) [T70241, 7-amino-1H-1,3-azaphospholo[4,5-d]pyrimidine]
[1]; 6 hours post-LPS (FIG. 4)
  levels of cell associated and free TNFα: able to reduce the levels of both cell associated and free TNFα
[1]
  inhibition at 10 µg/mL: ~25%
  inhibition at 100 µg/mL: ~90%
  IC50: 23.9 µg/mL (≈ 157 µM)
[1]; compound added 5 hours post-LPS, read at 6 h (FIG. 3)
  TNFα level on late addition: significantly reduce the level of TNFα in the culture medium; also recorded: sharply inhibit the amount of cytokine in the culture
[1]; concentrations as little as 10 μg/mL (FIG. 2)
  inhibition of TNFα production compared to control HWA-3138: inhibits TNFα production in these cells better than the control xanthine compound
[1]; [8]
  reduction of extracellular TNFα: about 50%
  reduction of membrane-bound (intracellular) TNFα: ~30%
[1]; pre-incubated, washed, drug free medium (FIG. 5)
  long-term inhibition of TNFα production after a single treatment: in a dose dependent fashion for 72 hours after the drug removal
[4]; 10 μg/ml
  viability at 48 h: 104%
[4]; 50 μg/ml
  viability at 48 h: 83%
[4]; 100 μg/ml
  viability at 48 h: 94%
[4]; 250 μg/ml
  viability at 48 h: 88%
[5]
  PBMC viability / toxicity: cell viability was not affected; also recorded: minimal
[6]; FIG. 9A, four day period
  toxic effect on growing MRC-5 cells: slight toxic effect on growing MRC-5 cells
[6]; Table 4, 50% inhibition of logphase growing cells, 5760 min
  TC50 Growing MRC-5: > 50 µg/mL
[2]
  CC50 at 96 h: > 50 µg/mL
[3]; 50 to 100 μg/mL, THP-1 (FIG. 6)
  inhibition of IL-1β production: able to inhibit IL-1β production
[3]; 6 hours post-LPS (FIG. 8)
  cell-associated and free IL-1β: reduce both the cell-associated (intracelluar) and the free (extracellular) IL-1β
[3]; [7]
  IC50: 16.1 µg/mL (≈ 106 µM)
[3]; from FIG. 6, LPS-stimulated THP-1, read-out: IC50, IL-1β production
  IC50: 38.8 µg/mL (≈ 255 µM)

Source: patent US6069132A, “Phosphazole compounds” (priority 1997, dated 2000)
